Data: PubChem BioAssay (NCI)
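Test compounds were applied to cells in 96-well plates for 48 hours at 5 doses. TGI is the concentration that stops growth completely.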

Columns and labels:
Assay in all cases: NCI tumour cell line growth inhibition, 48 h
[1] = system: 786-0 renal
[2] = system: A498 renal
[3] = system: A549 NSCLC
[4] = system: ACHN renal
[5] = system: BT-549 breast
[6] = system: CAKI-1 renal
[7] = system: CCRF-CEM leukemia
[8] = system: COLO 205 colon
[9] = system: DU-145 prostate
[10] = system: EKVX NSCLC
[11] = system: HCC-2998 colon
[12] = system: HCT-116 colon
[13] = system: HCT-15 colon
[14] = system: HL-60(TB) leukemia
[15] = system: HOP-62 NSCLC
[16] = system: HOP-92 NSCLC
[17] = system: HT29 colon
[18] = system: IGROV1 ovarian
[19] = system: K-562 leukemia
[20] = system: KM12 colon
[21] = system: M14 melanoma
[22] = system: MALME-3M melanoma
[23] = system: MCF7 breast
[24] = system: MDA-MB-231 breast
[25] = system: MDA-MB-435
[26] = system: MDA-N
[27] = system: MOLT-4 leukemia
[28] = system: NCI-H226 lung
[29] = system: NCI-H23 lung
[30] = system: NCI-H460 lung
[31] = system: NCI-H522 lung
[32] = system: NCI/ADR-RES ovarian
[33] = system: OVCAR-3 ovarian
[34] = system: OVCAR-4 ovarian
[35] = system: OVCAR-5 ovarian
[36] = system: OVCAR-8 ovarian
[37] = system: PC-3 prostate
[38] = system: RPMI-8226 leukemia
[39] = system: RXF 393 renal
[40] = system: SF-268 CNS
[41] = system: SF-295 CNS
[42] = system: SF-539 CNS
[43] = system: SK-MEL-2 melanoma
[44] = system: SK-MEL-28 melanoma
[45] = system: SK-OV-3 ovarian
[46] = system: SN12C renal
[47] = system: SNB-19 CNS
[48] = system: SNB-75 CNS
[49] = system: SR leukemia
[50] = system: SW-620 colon
[51] = system: T-47D breast
[52] = system: U251 CNS
[53] = system: UACC-257 melanoma
[54] = system: UACC-62 melanoma
[55] = system: UO-31 renal
[56] = system: LOX IMVI melanoma
[57] = system: SK-MEL-5 melanoma
[58] = system: TK-10 renal

## O=C1c2cccnc2S(=O)(=O)N1c1ccc(Oc2ccccc2)cc1
[1]
  TGI: > 100 µM
[2]
  TGI: > 100 µM
[3]
  TGI: > 100 µM
[4]
  TGI: > 100 µM
[5]
  TGI: > 100 µM
[6]
  TGI: > 100 µM
[7]
  TGI: > 100 µM
[8]
  TGI: > 100 µM
[9]
  TGI: > 100 µM
[10]
  TGI: > 100 µM
[11]
  TGI: > 100 µM
[12]
  TGI: > 100 µM
[13]
  TGI: > 100 µM
[14]
  TGI: > 100 µM
[15]
  TGI: > 100 µM
[16]
  TGI: > 100 µM
[17]
  TGI: > 100 µM
[18]
  TGI: > 100 µM
[19]
  TGI: > 100 µM
[20]
  TGI: > 100 µM
[21]
  TGI: > 100 µM
[22]
  TGI: > 100 µM
[23]
  TGI: > 100 µM
[24]
  TGI: > 100 µM
[25]
  TGI: > 100 µM
[26]
  TGI: > 100 µM
[27]
  TGI: > 100 µM
[28]
  TGI: > 100 µM
[29]
  TGI: > 100 µM
[30]
  TGI: > 100 µM
[31]
  TGI: > 100 µM
[32]
  TGI: > 100 µM
[33]
  TGI: > 100 µM
[34]
  TGI: > 100 µM
[35]
  TGI: > 100 µM
[36]
  TGI: > 100 µM
[37]
  TGI: > 100 µM
[38]
  TGI: > 100 µM
[39]
  TGI: > 100 µM
[40]
  TGI: > 100 µM
[41]
  TGI: > 100 µM
[42]
  TGI: > 100 µM
[43]
  TGI: > 100 µM
[44]
  TGI: > 100 µM
[45]
  TGI: > 100 µM
[46]
  TGI: > 100 µM
[47]
  TGI: > 100 µM
[48]
  TGI: > 100 µM
[49]
  TGI: > 100 µM
[50]
  TGI: > 100 µM
[51]
  TGI: > 100 µM
[52]
  TGI: > 100 µM
[53]
  TGI: > 100 µM
[54]
  TGI: > 100 µM
[55]
  TGI: > 100 µM

## COc1c(O)c(OC)c2oc(-c3ccc(O)c(O)c3)c(OC)c(=O)c2c1O
[1]
  TGI: 50.9 µM
[2]
  TGI: > 100 µM
[3]
  TGI: > 100 µM
[4]
  TGI: > 100 µM
[5]
  TGI: > 100 µM
[6]
  TGI: > 100 µM
[7]
  TGI: > 100 µM
[8]
  TGI: > 100 µM
[9]
  TGI: 98.8 µM
[10]
  TGI: 94 µM
[11]
  TGI: 98 µM
[12]
  TGI: > 100 µM
[13]
  TGI: > 100 µM
[14]
  TGI: 68.7 µM
[15]
  TGI: 43.7 µM
[16]
  TGI: 66 µM
[17]
  TGI: > 100 µM
[18]
  TGI: 25.7 µM
[19]
  TGI: > 100 µM
[20]
  TGI: > 100 µM
[56]
  TGI: 95.9 µM
[21]
  TGI: 50.7 µM
[22]
  TGI: 68 µM
[23]
  TGI: 34 µM
[24]
  TGI: > 100 µM
[25]
  TGI: 56.7 µM
[26]
  TGI: > 100 µM
[27]
  TGI: > 100 µM
[28]
  TGI: > 100 µM
[29]
  TGI: > 100 µM
[30]
  TGI: > 100 µM
[31]
  TGI: 33.4 µM
[32]
  TGI: > 100 µM
[33]
  TGI: 8.53 µM
[34]
  TGI: > 100 µM
[35]
  TGI: > 100 µM
[36]
  TGI: > 100 µM
[37]
  TGI: > 100 µM
[38]
  TGI: > 100 µM
[40]
  TGI: 10.3 µM
[41]
  TGI: > 100 µM
[42]
  TGI: > 100 µM
[43]
  TGI: 28.3 µM
[44]
  TGI: > 100 µM
[57]
  TGI: 50.8 µM
[45]
  TGI: 54.4 µM
[46]
  TGI: > 100 µM
[47]
  TGI: > 100 µM
[48]
  TGI: 11.5 µM
[49]
  TGI: > 100 µM
[50]
  TGI: > 100 µM
[51]
  TGI: 33 µM
[58]
  TGI: 99.5 µM
[52]
  TGI: 78.1 µM
[53]
  TGI: > 100 µM
[54]
  TGI: 47.8 µM
[55]
  TGI: 89.8 µM
